The record followed here is patent publication US11304926B2, “Application of transient receptor potential cation channel TRPV3 in developing drug for preventing or treating psoriasis” (CHINA PHARMACEUTICAL UNIVERSITY, priority 2019, dated 2022).

For this assay, the target named is T1, mTRPV3 (Mus musculus, UniProt Q8K424).
T1 construct: expressed in transfected cells
T1 sequence (Q8K424 1-791): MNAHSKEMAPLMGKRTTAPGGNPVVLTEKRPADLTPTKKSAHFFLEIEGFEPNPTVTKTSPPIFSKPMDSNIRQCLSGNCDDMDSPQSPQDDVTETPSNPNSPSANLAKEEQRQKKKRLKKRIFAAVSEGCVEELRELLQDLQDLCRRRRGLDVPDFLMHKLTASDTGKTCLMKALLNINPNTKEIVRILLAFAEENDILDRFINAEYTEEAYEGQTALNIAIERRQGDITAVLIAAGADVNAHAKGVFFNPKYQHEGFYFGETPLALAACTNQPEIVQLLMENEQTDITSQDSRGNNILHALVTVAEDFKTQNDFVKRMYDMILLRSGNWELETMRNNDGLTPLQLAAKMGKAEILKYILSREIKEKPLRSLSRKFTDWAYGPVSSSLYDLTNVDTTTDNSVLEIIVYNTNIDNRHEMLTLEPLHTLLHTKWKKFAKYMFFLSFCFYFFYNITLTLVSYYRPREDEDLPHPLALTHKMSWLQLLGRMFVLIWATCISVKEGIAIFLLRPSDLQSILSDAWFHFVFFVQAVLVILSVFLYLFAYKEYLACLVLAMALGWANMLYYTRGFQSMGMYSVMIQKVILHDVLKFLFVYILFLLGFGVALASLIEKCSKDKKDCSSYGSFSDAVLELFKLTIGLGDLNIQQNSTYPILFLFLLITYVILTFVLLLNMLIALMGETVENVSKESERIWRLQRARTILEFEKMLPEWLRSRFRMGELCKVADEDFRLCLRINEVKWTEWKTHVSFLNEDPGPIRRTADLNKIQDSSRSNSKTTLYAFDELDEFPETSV
Briefly: Whole-cell patch clamp of 2-APB induced current in mTRPV3-HEK-293 cells. It is filed as cell-based. On the procedure:
mTRPV3 plasmids were donated by Professor Jie Zheng from UC Davis. Transfection steps were as follows: HEK-293 cells with a confluence ranging from 70% to 80% and a good growth state were seeded into T-60 small dishes the day before transfection, each small dish contained 4×10^5 cells, and the cells were cultured without penicillin/streptomycin overnight at 37° C. in 5% CO2. 10 μL of plasmids (plasmid concentration was 1000 ng/μL) were diluted with 250 μl of DMEM (article number: 12800017, Gibco), and meanwhile, 10 μL of Lipofectamine 2000 (article number: 11668027, Gibco) was diluted into 250 μL of DMEM. […] Monoclone cells were selected by a limiting dilution method: the screened cells were digested and counted, and seeded into a 96-well plate in sequence at densities of 10^4 cells/well, 10^3 cells/well, 10^2 cells/well, 10 cells/well, and 1 cell/well. Under a fluorescence microscope, wells of separate cells with green fluorescence were labeled, and cells amplified from the wells were HEK-293 cells stably transfecting the mTRPV3. […] HEK-293 cells stably transecting mTRPV3 (mTRPV3-HEK-293) were seeded into T-60 small dishes with a confluence ranging from 20% to 30%, and whole cell current was recorded by a patch clamp amplification system next day. […]
On the technique in general: In patch-clamp work, channel activity is measured electrically.

SMILES strings stand for the structures. “Also recorded” adds a separate entry of the source.

In the case of `O=c1cc(-c2ccc(O)cc2)oc2cc(O)c(O)c(O)c12` [Scutellarein], the “inhibition of whole-cell current induced by 2-APB” value (Scutellarein 0.3-30 μM, 2-APB 100 μM, mTRPV3-HEK-293) was “could inhibit the whole-cell current induced by the 2-APB and had a dose dependence; also recorded: obvious inhibitory effect”. Moreover, the IC50 (whole-cell patch clamp, mTRPV3-HEK-293, 2-APB 100 μM, nonlinear fitting) turned out to be 1010 nM.

In general, IC50 refers to the concentration that gives 50% inhibition.
